{"source": "PubChem BioAssay AID1259407", "about": "(Chemical Carcinogenesis Research Information System (CCRIS), 2018)", "system": "CCRIS mutagenicity, Ames/micronucleus/aberration tests", "test": "CCRIS mutagenicity studies", "note": "Calls of active or inactive are those of the source. The rule behind the calls is not given here.", "data": [{"smiles": "COc1cc(CNC(=O)CCCC/C=C/C(C)C)ccc1O", "values": [{"measurement": "mutagenic call", "setting": "Test System: AMES SALMONELLA TYPHIMURIUM, Strain/Indicator: TA1535, Metabolic Activation: NONE, Method: DIRECT PLATE", "value": "inactive; negative"}, {"measurement": "mutagenic call", "setting": "Test System: AMES SALMONELLA TYPHIMURIUM, Strain/Indicator: TA1535, Metabolic Activation: NONE, Method: PREINCUBATION", "value": "inactive; negative"}, {"measurement": "mutagenic call", "setting": "Test System: AMES SALMONELLA TYPHIMURIUM, Strain/Indicator: TA1535, Metabolic Activation: RAT LIVER S-9, AROCLOR 1254, Method: PREINCUBATION", "value": "inactive; negative"}, {"measurement": "mutagenic call", "setting": "Test System: AMES SALMONELLA TYPHIMURIUM, Strain/Indicator: TA1535, Metabolic Activation: RAT LIVER S-9, AROCLOR 1254, Method: STANDARD PLATE", "value": "inactive; negative"}, {"measurement": "mutagenic call", "setting": "Test System: AMES SALMONELLA TYPHIMURIUM, Strain/Indicator: TA1535, Metabolic Activation: RAT, LIVER, S-9, AROCLOR 1254, Method: DIRECT PLATE", "value": "inactive; negative"}, {"measurement": "mutagenic call", "setting": "Test System: AMES SALMONELLA TYPHIMURIUM, Strain/Indicator: TA1535, Metabolic Activation: RAT, LIVER, S-9, AROCLOR 1254, Method: PREINCUBATION", "value": "inactive; negative"}, {"measurement": "mutagenic call", "setting": "Test System: AMES SALMONELLA TYPHIMURIUM, Strain/Indicator: TA1537, Metabolic Activation: HAMSTER, LIVER, S-9, AROCLOR 1254, Method: STANDARD PLATE", "value": "inactive; negative"}, {"measurement": "mutagenic call", "setting": "Test System: AMES SALMONELLA TYPHIMURIUM, Strain/Indicator: TA1537, Metabolic Activation: NONE, Method: DIRECT PLATE", "value": "inactive; negative"}, {"measurement": "mutagenic call", "setting": "Test System: AMES SALMONELLA TYPHIMURIUM, Strain/Indicator: TA1537, Metabolic Activation: NONE, Method: PREINCUBATION", "value": "inactive; negative"}, {"measurement": "mutagenic call", "setting": "Test System: AMES SALMONELLA TYPHIMURIUM, Strain/Indicator: TA1537, Metabolic Activation: NONE, Method: STANDARD PLATE", "value": "inactive; negative"}, {"measurement": "mutagenic call", "setting": "Test System: AMES SALMONELLA TYPHIMURIUM, Strain/Indicator: TA1537, Metabolic Activation: RAT LIVER S-9, AROCLOR 1254, Method: PREINCUBATION", "value": "inactive; negative"}, {"measurement": "mutagenic call", "setting": "Test System: AMES SALMONELLA TYPHIMURIUM, Strain/Indicator: TA1537, Metabolic Activation: RAT LIVER S-9, AROCLOR 1254, Method: STANDARD PLATE", "value": "inactive; negative"}, {"measurement": "mutagenic call", "setting": "Test System: AMES SALMONELLA TYPHIMURIUM, Strain/Indicator: TA1537, Metabolic Activation: RAT, LIVER, S-9, AROCLOR 1254, Method: DIRECT PLATE", "value": "inactive; negative"}, {"measurement": "mutagenic call", "setting": "Test System: AMES SALMONELLA TYPHIMURIUM, Strain/Indicator: TA1537, Metabolic Activation: RAT, LIVER, S-9, AROCLOR 1254, Method: PREINCUBATION", "value": "inactive; negative"}, {"measurement": "mutagenic call", "setting": "Test System: AMES SALMONELLA TYPHIMURIUM, Strain/Indicator: TA1537, Metabolic Activation: RAT, LIVER, S-9, AROCLOR 1254, Method: STANDARD PLATE", "value": "inactive; negative"}, {"measurement": "mutagenic call", "setting": "Test System: AMES SALMONELLA TYPHIMURIUM, Strain/Indicator: TA1538, Metabolic Activation: HAMSTER, LIVER, S-9, AROCLOR 1254, Method: STANDARD PLATE", "value": "inactive; negative"}, {"measurement": "mutagenic call", "setting": "Test System: AMES SALMONELLA TYPHIMURIUM, Strain/Indicator: TA1538, Metabolic Activation: NONE, Method: STANDARD PLATE", "value": "inactive; negative"}, {"measurement": "mutagenic call", "setting": "Test System: AMES SALMONELLA TYPHIMURIUM, Strain/Indicator: TA1538, Metabolic Activation: RAT, LIVER, S-9, AROCLOR 1254, Method: STANDARD PLATE", "value": "inactive; negative"}, {"measurement": "mutagenic call", "setting": "Test System: CHINESE HAMSTER V-79, Strain/Indicator: V-79/8-AZAGUANINE, Metabolic Activation: NONE", "value": "inactive; negative"}, {"measurement": "mutagenic call", "setting": "Test System: CHINESE HAMSTER V-79, Strain/Indicator: V-79/8-AZAGUANINE, Metabolic Activation: RAT, LIVER, S-9, AROCLOR", "value": "inactive; negative"}, {"measurement": "mutagenic call", "setting": "Test System: E. COLI, Strain/Indicator: WP2UVRA, Metabolic Activation: NONE, Method: PREINCUBATION", "value": "inactive; negative"}, {"measurement": "mutagenic call", "setting": "Test System: E. COLI, Strain/Indicator: WP2UVRA, Metabolic Activation: NONE, Method: STANDARD PLATE", "value": "inactive; negative"}, {"measurement": "mutagenic call", "setting": "Test System: E. COLI, Strain/Indicator: WP2UVRA, Metabolic Activation: RAT LIVER S-9, AROCLOR 1254, Method: PREINCUBATION", "value": "inactive; negative"}, {"measurement": "mutagenic call", "setting": "Test System: E. COLI, Strain/Indicator: WP2UVRA, Metabolic Activation: RAT LIVER S-9, AROCLOR 1254, Method: STANDARD PLATE", "value": "inactive; negative"}, {"measurement": "mutagenic call", "setting": "Test System: E. COLI, Strain/Indicator: WP2UVRA, Metabolic Activation: RAT, LIVER, S-9, AROCLOR 1254, Method: DIRECT PLATE", "value": "inactive; negative"}, {"measurement": "mutagenic call", "setting": "Test System: E. COLI, Strain/Indicator: WP2UVRA, Metabolic Activation: RAT, LIVER, S-9, AROCLOR 1254, Method: PREINCUBATION", "value": "inactive; negative"}, {"measurement": "mutagenic call", "setting": "Test System: E.COLI, Strain/Indicator: WP2UVRA, Metabolic Activation: NONE, Method: DIRECT PLATE", "value": "inactive; negative"}, {"measurement": "mutagenic call", "setting": "Test System: MOUSE LYMPHOMA, Strain/Indicator: L5178Y (TK+/TK-), Metabolic Activation: RAT, LIVER, S-9, AROCLOR 1254, Method: SUSPENSION/PLATE", "value": "active; positive"}, {"measurement": "mutagenic call", "setting": "Test System: MOUSE LYMPHOMA, Strain/Indicator: L5178Y(TK+/-), Metabolic Activation: NONE, Method: SUSPENSION/PLATE (4 H EXPOSURE)", "value": "active; positive"}, {"measurement": "mutagenic call", "setting": "Test System: MOUSE LYMPHOMA, Strain/Indicator: L5178Y(TK+/-), Metabolic Activation: NONE, Method: SUSPENSION/PLATE (24 H EXPOSURE)", "value": "inactive; negative"}, {"measurement": "mutagenic call", "setting": "Test System: MOUSE LYMPHOMA, Strain/Indicator: L5178Y(TK+/-), Metabolic Activation: RAT LIVER S-9, AROCLOR 1254, Method: SUSPENSION/PLATE", "value": "active; positive"}]}]}
